In ChEMBL document CHEMBL1151621, “Correlation of the anticholinesterase and molluscicidal activity of the latex of Euphorbia royleana on the snail Lymnaea acuminata” (1984) one finds Activity data, which are given here for six molecules.

The test system of assay [1] is Lymnaea. Put plainly: In vivo inhibition of acetylcholinesterase from nerve tissue of Lymnaea acuminata at 27 mg/L relative to control. Format: functional. The arrangement: scale not given: the % may be the effect or the level left.
Assay [2] relates to Lymnaea. The experiment in a line: Inhibition of acetylcholinesterase from nerve tissue of Lymnaea acuminata at 0.75 ug w/v relative to control. On the set-up: scale not given: the % may be the effect or the level left.
Assay [3] relates to Lymnaea. Put plainly: Inhibition of acetylcholinesterase from nerve tissue of Lymnaea acuminata at 1 ug w/v relative to control. The arrangement: scale not given: the % may be the effect or the level left.
Assay [4] concerns Lymnaea. The experiment in a line: In vivo inhibition of acetylcholinesterase from nerve tissue of Lymnaea acuminata at 2.5 mg/L relative to control. Format: functional. The arrangement: scale not given: the % may be the effect or the level left.
The subject of assay [5] is Lymnaea. The experiment in a line: Molluscicidal activity against Lymnaea acuminata within 24 hrs. The format is functional.
Assay [6] concerns Lymnaea. The experiment in a line: Inhibition of acetylcholinesterase from nerve tissue of Lymnaea acuminata at 0.5 ug w/v relative to control. The arrangement: scale not given: the % may be the effect or the level left.
Assay [7] relates to Lymnaea. Put plainly: In vivo inhibition of acetylcholinesterase from nerve tissue of Lymnaea acuminata at 30 mg/l relative to control. Format: functional. On the set-up: scale not given: the % may be the effect or the level left.
Assay [8] deals with Lymnaea. The experiment in a line: In vivo inhibition of acetylcholinesterase from nerve tissue of Lymnaea acuminata at 14 mg/L relative to control. The format is functional. On the set-up: scale not given: the % may be the effect or the level left.
The subject of assay [9] is Lymnaea. Put plainly: Inhibition of acetylcholinesterase from nerve tissue of Lymnaea acuminata at 2 ug w/v relative to control. On the set-up: scale not given: the % may be the effect or the level left.
Assay [10] has as its system Lymnaea. The experiment in a line: Inhibition of acetylcholinesterase from nerve tissue of Lymnaea acuminata at 0.23 ug w/v relative to control. On the set-up: scale not given: the % may be the effect or the level left.

Regarding `COP(=S)(OC)SCC(=O)N(C)C=O` [FORMOTHION], the Activity in the assay on Lymnaea [1] was determined as 79%; with Lymnaea [2] it was 47%.

Consider `CNC(=O)Oc1cc(C)c(N(C)C)c(C)c1` [MEXACARBATE], for which the Activity was found to be 39% in the assay with Lymnaea [3] and 53% in the assay on Lymnaea [4].

In turn, `O=C(Nc1ccc([N+](=O)[O-])cc1Cl)c1cc(Cl)ccc1O` [NICLOSAMIDE] returned an Activity in the assay with Lymnaea [5] of 63%.

Regarding `CCOP(=S)(OCC)SCSCC` [PHORATE], the values for the Activity with Lymnaea [6] and with Lymnaea [7] were 42% and 67%, respectively.

Consider `CNC(=O)Oc1cccc2ccccc12` [CARBARIL], for which the Activity in the assay on Lymnaea [8] was 73%; with Lymnaea [9], 67%.

In the assay with Lymnaea [10], `CNC(=O)Oc1ccc2c(c1)[C@]1(C)CCN(C)[C@@H]1N2C` had an Activity of 13%.
